Key:
[1] = system: MD-MBA 231 (breast cancer cells); experiment: cytotoxicity assay (ATPlite luminescence), 1 h treatment then 72 h incubation; details: MD-MBA 231 cells, 0-18 μg/ml [DOX], FIG. 3A
[2] = system: A431 (epidermoid cancer cells); details: 0-18 μg/ml [DOX], 1-hour treatment, 72-hour incubation, FIG. 3B

SMILES: COc1cccc2c1C(=O)c1c(O)c3c(c(O)c1C2=O)C[C@@](O)(C(=O)CO)C[C@@H]3O[C@H]1C[C@H](N)[C@H](O)[C@H](C)O1 [free doxorubicin, doxorubicin]
- cytotoxicity (cell viability) [1]: concentration effects on cell viability
- cytotoxicity (cell viability) [2]: concentration effects on cell viability

Reference: US20070092558A1, “Methods of Preparing Targeted Immunoliposomes” (priority 2005, published 2007)
